Read-outs that look alike come from different tables or passages of the source.
Format: physicochemical
Settings: for Dissolution After Heating: 90° C.
Description: A 10 mL solution of M4N at a concentration of about 10 mg/mL in 40% BP-β-CD was made as follows. About 10 mL of the 40% HP-β-CD solution were added to a glass beaker containing a stir bar. The beaker was placed on a magnetic plate and the stir bar was set to stir at medium speed. About […] of M4N were slowly added to the 40% HP-β-CD in the center of the beaker with the aid of a spatula. The M4N/40% HP-β-CD mixture was stirred for 2 hr or until all M4N was uniformly suspended without any clumps being present. The M4N/40% HP-β-CD mixture was optionally heated at 80° C. for about 30 min. (or longer if a larger volume of solution was desired, for example, 1 hr at 80° C. for 100 mL of the M4N/HP-β-CD mixture), or longer as needed to ensure complete dissolution of M4N. […] The final M4N/40% HP-β-CD solution was stored at room temperature and was kept protected from light. This process may be scaled up or down to obtain the requisite volume or concentration of M4N. Formulations containing M4N in other cyclodextrin solutions may be similarly made, such as, for example, by substituting HP-β-CD in the process described above with other cyclodextrins. […]
A 10 mL solution of M4N at a concentration of about 10 mg/mL in 50% HP-β-CD/0.5% HPMC was made as follows. About 10 mL of the 50% HP-β-CD/0.5% HPMC solution were added to a glass beaker containing a stir bar. The beaker was placed on a magnetic plate and the stir bar was set to stir at medium speed. About 100 mg of M4N were slowly added to the 50% HP-β-CD/0.5% HPMC in the center of the beaker with the aid of a spatula. The M4N/50% HP-β-CD/0.5% HPMC mixture was stirred for 24 hr or until all M4N was uniformly suspended without any clumps being present. The M4N/50% HP-β-CD/0.5% HPMC mixture was heated at about 90° C. for about 30 min. (or longer if a larger volume of solution was desired, for example, 1 hr at 90° C. for 500 mL of the M4N/50% HP-β-CD/0.5% HPMC mixture), or longer as needed to ensure complete dissolution of M4N. […] The final M4N/50% HP-β-CD/0.5% HPMC solution was stored at room temperature and was kept protected from light.
A 10 mL solution of M4N at a concentration of about 20 mg/mL in 5% EC (w/v) (the “EC formulation”) was made as follows. About 10 mL of 5% EC formulation, made as described above, were added to a glass beaker containing a stir bar. The beaker was placed on a magnetic plate and the stir bar was set to stir at medium speed, and covered with a round Teflon® cover. About 200 mg of M4N were slowly added to the 5% EC formulation in the center of the beaker with the aid of a spatula to prevent M4N from sticking to the beaker wall. The M4N/EC mixture was stirred for 2 hr or until all M4N had dissolved or was uniformly suspended without any clumps being present. The M4N/EC mixture was heated at about 60° C. for about 30 min. (or longer if a larger volume of solution was desired, for example, 1 hr at 60° C. for 500 mL of the M4N/EC mixture), or longer as needed to ensure complete dissolution of M4N. […] The final M4N/EC solution was stored at room temperature and was kept protected from light.
A 10 mL solution of M4N at a concentration of about 50 mg/mL in sesame oil was made as follows. About 10 mL of sesame oil were added to a glass beaker containing a stir bar. The beaker was placed on a magnetic plate and the stir bar was set to stir at medium speed. About 500 mg of M4N were slowly added to the sesame oil in the center of the beaker with the aid of a spatula to prevent M4N from sticking to the beaker wall. The M4N/sesame oil mixture was stirred for about 2 hr or until all M4N had dissolved or was uniformly suspended without any clump being present. The M4N/sesame oil mixture was heated at about 60° C. for about 30 min. (or longer if a larger volume of solution was desired, for example, 1 hr at 60° C. for 500 mL of the M4N/sesame oil mixture), or longer as need to ensure complete dissolution of M4N. […]

[1] = M4N 1 mg/mL in 40% HP-β-CD, 1% PVP (w/v)
[2] = M4N 1 mg/mL in 50% HP-β-CD, 0.5% HPMC
[3] = M4N 1 mg/mL in 50% HP-β-CD, 1.25% PVP (w/v)
[4] = M4N 3.13 mg/mL in 5% HP-β-CD, 12.5% PEG 300 (v/v)
[5] = M4N 4.17 mg/mL in 6.7% HP-β-CD, 16.7% PEG 300 (v/v)
[6] = M4N 6.25 mg/mL in 10% HP-β-CD, 25% PEG 300 (v/v)
For Dissolution After Cool Down in this document: key: N represents 'No'; Y represents 'Yes.'.

COc1ccc(C[C@@H](C)[C@@H](C)Cc2ccc(OC)c(OC)c2)cc1OC [Formulation M4N, meso-1,4-bis(3,4-dimethoxyphenyl)-2,3-dimethylbutane]
Dissolution After Rotation (M4N 1 mg/mL in 1.50% β-CD): N | Dissolution After Heating at X° C. (M4N 1 mg/mL in 1.50% β-CD, 90°): N at 90° | Dissolution After Rotation (M4N 1 mg/mL in 2% MC (Low viscosity)): N | Dissolution After Rotation (M4N 1 mg/mL in 2.3% HPMC): N | Dissolution After Heating (M4N 1 mg/mL in 2.3% HPMC): N at 90 °C | Dissolution After Rotation (M4N 1 mg/mL in 5% EC in EtOH): Y | Dissolution After Rotation (M4N 1 mg/mL in 5% γ-CD): N | Dissolution After Heating at X° C. (M4N 1 mg/mL in 5% γ-CD, 90°): N at 90° | Dissolution After Rotation (M4N 1 mg/mL in 15% α-CD): N | Dissolution After Heating at X° C. (M4N 1 mg/mL in 15% α-CD, 90°): N at 90° | Dissolution After Cool Down (M4N 1 mg/mL in 20% HP-β-CD): Y | Dissolution After Rotation (M4N 1 mg/mL in 20% HP-β-CD): N | Dissolution After Rotation (M4N 1 mg/mL in 20% HP-β-CD in saline): N | Dissolution After Heating at X° C. (M4N 1 mg/mL in 20% HP-β-CD, 90°): Y at 90° | Dissolution After Cool Down (M4N 1 mg/mL in 30% HP-β-CD): Y | Dissolution After Rotation (M4N 1 mg/mL in 30% HP-β-CD): N | Dissolution After Heating at X° C. (M4N 1 mg/mL in 30% HP-β-CD, 90°): Y at 90° | Dissolution After Cool Down (M4N 1 mg/mL in 40% HP-β-CD): Y | Dissolution After Rotation (M4N 1 mg/mL in 40% HP-β-CD): N | Dissolution After Heating at X° C. [1]: N | Dissolution After Rotation [1]: N | Dissolution After Rotation (M4N 1 mg/mL in 40% HP-β-CD, 2.5% PG (v/v)): N | Dissolution After Heating at X° C. (M4N 1 mg/mL in 40% HP-β-CD, 2.5% PG (v/v), 80°): N at 80° | Dissolution After Heating at X° C. (M4N 1 mg/mL in 40% HP-β-CD, 80°): Y at 80° | Dissolution After Cool Down (M4N 1 mg/mL in 50% HP-β-CD): Y | Dissolution After Rotation (M4N 1 mg/mL in 50% HP-β-CD): N | Dissolution After Rotation (M4N 1 mg/mL in 50% HP-β-CD, 0.5% CMC): Suspension | Dissolution After Cool-Down [2]: Y | Dissolution After Rotation [2]: N | Dissolution After Rotation (M4N 1 mg/mL in 50% HP-β-CD, 0.5% HPMC, other experiment, no heat): Suspension | Dissolution After Cool Down [3]: Y | Dissolution After Rotation [3]: N | Dissolution After Heating at X° C. (M4N 1 mg/mL in 50% HP-β-CD, 1.25% PVP (w/v), 90°): Y at 90° | Dissolution After Heating at X° C. (M4N 1 mg/mL in 50% HP-β-CD, 90°): Y at 90° | Dissolution After Cool-Down (M4N 1 mg/mL in Corn Oil): Y | Dissolution After Cool Down [4]: Y | Dissolution After Rotation [4]: N | Dissolution After Heating at X° C. (M4N 3.13 mg/mL in 5% HP-β-CD, 12.5% PEG 300 (v/v), 60°): Y at 60° | Dissolution After Cool Down [5]: Y | Dissolution After Rotation [5]: N | Dissolution After Heating at X° C. (M4N 4.17 mg/mL in 6.7% HP-β-CD, 16.7% PEG 300 (v/v), 60°): Y at 60° | Dissolution After Cool Down [6]: Y | Dissolution After Rotation [6]: N | Dissolution After Heating at X° C. (M4N 6.25 mg/mL in 10% HP-β-CD, 25% PEG 300 (v/v), 60°): Y at 60° | Dissolution After Rotation (M4N 10 mg/mL in 1% HPMC): suspension | Dissolution After Rotation (M4N 10 mg/mL in 1.50% β-CD): N | Dissolution After Heating at X° C. (M4N 10 mg/mL in 1.50% β-CD, 90°): N at 90° | Dissolution After Rotation (M4N 10 mg/mL in 2.3% HPMC): N | Dissolution After Heating (M4N 10 mg/mL in 2.3% HPMC): N at 90 °C | Dissolution After Cool-Down (M4N 10 mg/mL in 5% EC in EtOH): Y | Dissolution After Rotation (M4N 10 mg/mL in 5% EC in EtOH): N | Dissolution After Rotation (M4N 10 mg/mL in 15% α-CD): N | Dissolution After Heating at X° C. (M4N 10 mg/mL in 15% α-CD, 90°): N at 90° | Dissolution After Rotation (M4N 10 mg/mL in 20% HP-β-CD): N | Dissolution After Rotation (M4N 10 mg/mL in 20% HP-β-CD in saline): N | Dissolution After Heating at X° C. (M4N 10 mg/mL in 20% HP-β-CD, 90°): N at 90° | Dissolution After Cool Down (M4N 10 mg/mL in 30% HP-β-CD): Y | Dissolution After Rotation (M4N 10 mg/mL in 30% HP-β-CD): N | Dissolution After Heating at X° C. (M4N 10 mg/mL in 30% HP-β-CD, 90°): Y at 90°
